{"source": "ChEMBL document CHEMBL1139040", "about": "“4-Methylideneisoxazolidin-5-ones--a new class of alpha-methylidene-gamma-lactones with high cytostatic activity” (Bioorg Med Chem Lett, 2006)", "format_in_all_cases": "functional, cell-based", "key": {"L1210": {"system": "L1210", "test": "Antiproliferative activity against mouse L1210 leukemia cell line"}, "HL-60": {"system": "HL-60", "test": "Antiproliferative activity against human HL60 leukemia cell line"}, "NALM-6": {"system": "NALM-6", "test": "Antiproliferative activity against human NALM6 leukemia cell line"}}, "data": [{"smiles": "C=C1C(=O)ON(C)C1c1ccccc1", "note": "(configuration not stated)", "values": [{"measurement": "IC50", "setting": "L1210", "result": 5.5, "unit": "µM"}, {"measurement": "IC50", "setting": "HL-60", "result": 34.8, "unit": "µM"}, {"measurement": "IC50", "setting": "NALM-6", "result": 4.96, "unit": "µM"}]}, {"smiles": "C=C1C(=O)ON(C)C1C(C)C", "note": "(configuration not stated)", "values": [{"measurement": "IC50", "setting": "L1210", "result": 2.63, "unit": "µM"}, {"measurement": "IC50", "setting": "HL-60", "result": 0.74, "unit": "µM"}, {"measurement": "IC50", "setting": "NALM-6", "result": 4.16, "unit": "µM"}]}, {"smiles": "C=C1C(=O)ON(C)C1c1ccc(C)cc1", "note": "(configuration not stated)", "values": [{"measurement": "IC50", "setting": "L1210", "result": 0.8, "unit": "µM"}, {"measurement": "IC50", "setting": "HL-60", "result": 5.4, "unit": "µM"}, {"measurement": "IC50", "setting": "NALM-6", "result": 5.8, "unit": "µM"}]}, {"smiles": "C=C1C(=O)ON(C)C1c1ccc2c(c1)OCO2", "note": "(configuration not stated)", "values": [{"measurement": "IC50", "setting": "L1210", "result": 7, "unit": "µM"}, {"measurement": "IC50", "setting": "HL-60", "result": 6.6, "unit": "µM"}, {"measurement": "IC50", "setting": "NALM-6", "result": 4.2, "unit": "µM"}]}, {"smiles": "C=C1C(=O)ON(C)C1C(C)CCC", "note": "(configuration not stated)", "values": [{"measurement": "IC50", "setting": "L1210", "result": 1.9, "unit": "µM"}, {"measurement": "IC50", "setting": "HL-60", "result": 4.7, "unit": "µM"}, {"measurement": "IC50", "setting": "NALM-6", "result": 0.34, "unit": "µM"}]}, {"smiles": "C=C1C(=O)ON(C)C1c1ccc([N+](=O)[O-])cc1", "note": "(configuration not stated)", "values": [{"measurement": "IC50", "setting": "L1210", "result": 0.8, "unit": "µM"}, {"measurement": "IC50", "setting": "HL-60", "result": 7.4, "unit": "µM"}, {"measurement": "IC50", "setting": "NALM-6", "result": 5.2, "unit": "µM"}]}, {"smiles": "C=C1C(=O)ON(C)C1c1ccc(OC)cc1", "note": "(configuration not stated)", "values": [{"measurement": "IC50", "setting": "L1210", "result": 3.5, "unit": "µM"}, {"measurement": "IC50", "setting": "HL-60", "result": 5.4, "unit": "µM"}, {"measurement": "IC50", "setting": "NALM-6", "result": 5.5, "unit": "µM"}]}, {"smiles": "C=C1C(=O)ON(C)C1c1cccc2ccccc12", "note": "(configuration not stated)", "values": [{"measurement": "IC50", "setting": "L1210", "result": 3.2, "unit": "µM"}, {"measurement": "IC50", "setting": "HL-60", "result": 5.6, "unit": "µM"}, {"measurement": "IC50", "setting": "NALM-6", "result": 4.2, "unit": "µM"}]}, {"smiles": "C=C1C(=O)ON(C)C1c1ccc(Br)cc1", "note": "(configuration not stated)", "values": [{"measurement": "IC50", "setting": "L1210", "result": 0.7, "unit": "µM"}, {"measurement": "IC50", "setting": "HL-60", "result": 5.1, "unit": "µM"}, {"measurement": "IC50", "setting": "NALM-6", "result": 4.6, "unit": "µM"}]}]}
